Assay results published in patent publication US20040254371A1, “New benzothiazine and benzothiadiazine compounds” (priority 2003, published 2004).

The compounds below were run on AMPA receptors (assay: Excitatory currents induced by AMPA in Xenopus oocytes (voltage-clamp)). Conditions: Xenopus oocytes injected with rat cerebral cortex poly(A+) mRNA, AMPA 10 μM, 20-24° C.
Format: cell-based
Procedure: Study of the excitatory currents induced by AMPA in Xenopus oocytes
mRNA's are prepared from cerebral cortex of male Wistar rats by the guanidinium thiocyanate/phenol/chloroform method. The poly (A^+) mRNA's are isolated by chromatography on oligo-dT cellulose and injected at a level of 50 ng per oocyte. The oocytes are incubated for 2 to 3 days at 18° C. to permit expression of the receptors and are then stored at 8-10° C.
Electrophysiological recording is carried out in a Plexiglass® chamber at 20-24° C. in OR2 medium (J. Exp. Zool., 1973, 184, 321-334) by the “voltage-clamp” method using two electrodes, with a third electrode placed in the bath serving as reference.
All the compounds are applied via the incubation medium and the electric current is measured at the end of the application period. AMPA is used in a concentration of 10 μM. For each compound studied, the concentration that doubles (EC2X) or quintuples (EC5X) the intensity of the current induced by AMPA alone (5 to 50 nA) is determined.

SMILES | EC2X (concentration that doubles the intensity of the current induced by AMPA alone) [µM] | EC5X (concentration that quintuples the intensity of the current induced by AMPA alone) [µM]
O=S1(=O)NC2CCCN2c2ccc(Oc3cccc(-c4nnn[nH]4)c3)cc21 (stereo not drawn) [Example 1, 7-[3-(1H-Tetrazol-5-yl)phenoxy]-2,3,3a,4-tetrahydro-1H-pyrrolo-[2,1-c][1,2,4]benzothiadiazine 5,5-dioxide] | 0.2 | 0.8
O=S1(=O)NC2CCCN2c2ccc(Oc3cccc(-c4ccoc4)c3)cc21 (stereo not drawn) [Example 17, 7-[3-(3-Furyl)phenoxy]-2,3,3a,4-tetrahydro-1H-pyrrolo[2,1-c][1,2,4]benzothiadiazine 5,5-dioxide] | 4.5 | 11.5
O=S1(=O)NC2CCCN2c2ccc(Oc3cccc(-c4cnco4)c3)cc21 (stereo not drawn) [Example 18, 7-[3-(1,3-Oxazol-5-yl)phenoxy]-2,3,3a,4-tetrahydro-1H-pyrrolo-[2,1-c][1,2,4]benzothiadiazine 5,5-dioxide] | 0.66 | 4
